Values of other authors in patent US5320960A, “Method of preparing solution enriched in xylanase using low molecular weight alcohol, organic salt and inorganic salt” (Genencor International, Inc., priority 1992, dated 1994).

Biological target: β-Glucosidase (BG) components of fungal cellulase
Conditions: competitive inhibition; read-out: Ki (glucose)

In the case of `OC[C@H]1OC(O)[C@H](O)[C@@H](O)[C@@H]1O` (stereo partly shown) [glucose], the Ki is given as about 1000 µM.
